Reference: patent US20240285555A1, “COMPOSITIONS FOR THE TREATMENT OF COPPER DEFICIENCY AND METHODS OF USE” (priority 2018, published 2024)

Experiments:
[1] = tested on: CcO-containing mitochondrial respiratory chain supercomplexes; experiment: Assembly and activity of CcO-containing supercomplexes (native PAGE blotting, in-gel activity); assay type: cell-based, Saccharomyces cerevisiae; conditions: 20 nM ES, YP galactose medium
Description: FIGS. 2A, 2B, 2C, 2D and 2E illustrate elesclomol supplementation rescues CcO assembly defects by restoring mitochondrial copper levels of yeast S. cerevisiae coa6Δ cells. FIGS. 2A-2C illustrate bioenergetic parameters of wild type (WT), coa6Δ, and coa6Δ cells supplemented with 20 nM ES were cultured in YP galactose medium until early stationary growth phase. […] Error bars represent mean±SD (n=3, two-tailed unpaired Student's t-test *p<0.05, **p<0.005).
(§1) Immunoblotting and In-gel Activities. Sodium dodecyl sulfate polyacrylamide gel electrophoresis (SDS-PAGE) and Blue Native PAGE (BN-PAGE) were performed to separate denatured and native protein complexes, respectively. For SDS-PAGE, mitochondrial lysate ([…]) was separated on NuPAGE 4-12% Bis-Tris gels (Life Technologies, Carlsbad, CA). For BN-PAGE, yeast mitochondria were solubilized in buffer containing 1% digitonin (Life Technologies) by incubating for 15 min at 4° C. […]
A number of copper-binding pharmacological agents were tested for their ability to rescue respiratory deficient growth of coa6Δ cells. […] To determine the biochemical basis for the observed respiratory rescue of coa6Δ cells, the assembly and activity of CcO-containing mitochondrial respiratory chain supercomplexes was measured by native-polyacrylamide gel electrophoresis blotting and in-gel activity assay, respectively. […]

[2] = tested on: control MEFs; experiment: COX1 levels in control mouse embryonic fibroblasts (toxicity); assay type: cell-based; conditions: higher doses of ES
Description: (§2) Mammalian Cell Culture. The human control MCH46 and SCO2 patient fibroblasts as well as the rat H9c2 control and Ctr1^−/− cardiomyocytes were cultured in high glucose Dulbecco's modified Eagle's medium (DMEM) supplemented with 10% fetal bovine serum (Sigma) and 1 mM sodium pyruvate (Life Technologies). The mouse embryonic fibroblasts were cultured in DMEM 10% FBS, 1 mM sodium pyruvate, 1× minimum essential medium non-essential amino acids (MEM NEAA; Life Technologies 11140), 50 μg/mL uridine, and 1× Pen Strep Glutamine (Life Technologies 10378). All cell lines were cultured under 5% CO2 at 37° C. and were treated with indicated concentrations of ES for 3-6 days before harvesting. Whole cell protein was extracted in lysis buffer (BP-115, Boston BioProducts) supplemented with protease inhibitor cocktail (Roche Diagnostics) and the protein concentrations were determined by BCA assay (Thermo Scientific).
as §1

[3] = tested on: Ctrl^−/− mouse embryonic fibroblasts (MEFs); experiment: COX1 levels in Ctr1 knockout mouse embryonic fibroblasts; assay type: cell-based; conditions: increasing ES doses
Description: as §2, §1

[4] = tested on: yeast atx1Δ; experiment: Respiratory growth rescue of atx1Δ yeast; assay type: cell-based, Saccharomyces cerevisiae; conditions: non-fermentable media, 37° C.
Description: Yeast Strains and Culture Conditions. The authenticity of yeast strains was confirmed by PCR as well as by replica plating on dropout plates. Yeast cells were cultured in standard YP growth media including YPD (1% yeast extract, 2% peptone and 2% glucose), YPGal (2% galactose), YPGE (3% glycerol+1% ethanol), or synthetic media (SC glucose). For qualitative growth measurement, 10-fold serial dilutions of overnight cultures were spotted on YPD or YPGE plates and incubated at 30° C. and 37° C. for the indicated period. Growth in liquid media was measured spectrophotometrically at 600 nm.
ES Rescues Many Different Yeast Mutants with Impaired Copper Metabolism. To test the specificity of ES mediated rescue, a number of yeast mutants of genes required for maintaining cellular and mitochondrial copper homeostasis were shortlisted. Genes were prioritized based on their evolutionary conservation, presence of pathogenic mutations in humans, and/or the existence of a related mouse phenotype (Table 3, shown below). […] Most of the yeast mutants were rescued with ES supplementation, albeit to different degrees, reflecting their distinct roles in cellular and mitochondrial copper homeostasis. […]

In the case of `CN(NC(=O)CC(=O)NN(C)C(=S)c1ccccc1)C(=S)c1ccccc1` [ES, elesclomol], the “abundance and activity of CcO-containing supercomplexes” value [1] is reported as “restored the abundance and activity of CcO-containing supercomplexes to near wild type levels”, the “ES toxicity reflected in COX1 levels” value [2] is reported as “reduced COX1 levels” and the COX1 levels [3] is reported as “dose dependent rescue”. The “rescue of respiratory growth” value [4] was “rescue”.
